In US11306095B2 (EAST CHINA UNIVERSITY OF SCIENCE AND TECHNOLOGY, priority 2015, dated 2022):
In brackets after ≈: the same amount, converted by molar mass. Like-named read-outs stand apart in the source and are kept apart here.

Key:
EGFR-L858R/T790M = molecular target: T1, EGFR-L858R/T790M (Homo sapiens, UniProt P00533, L858R/T790M); experiment: Kinase activity test (FRET), EGFR T790M/L858R; type: biochemical
T1 construct: purchased Invitrogen PV4879
Experimental: (§1) EGFR-TK catalyses transfer of one phosphate group of adenosine triphosphate (ATP) to polypeptide substrate, poly(Glu, Tyr)4:1, which is labeled with two fluorescent groups coumarin and fluorescein.
(§2) 2.5 μL of Test Compounds, 5 μL Kinase/Peptide Substrate Mixture, 2.5 μL ATP Solution were added into a 384-well plate, and the 10 μL of reaction system was shaken for 30 s and incubated at room temperature for 1 h. 5 μL of Development Solution was added and the 15 μL of reaction system was shaken for 30 s, and incubated at room temperature for 1 h. […] The inhibitory rates of the compounds at 7 concentration gradients were determined and the IC50 value for each compound was calculated by Origin 8.0 fitting curve.
(§3) 10 concentration gradients from 5.1×10^−11 mol/L to 1.0×10^−6 mol/L were set for all compounds to be tested.
(§4) Compounds were diluted in DMSO for three times from 5.1×10^−9 M to 1×10^−4 M. 4 μL of the compound was dissolved in 96 μL of water to obtain a 4× compound solution. […] The 10 μL kinase reaction consisted of 2.5 μL compound solution, 5 μL kinase/peptide mix, 2.5 μL ATP solution. […] 5 μL of phosphorylated peptide solution, instead of the kinase/peptide mixture, was used as a 100% phosphorylation control. […] The plates were thoroughly mixed and incubated at room temperature for 1.5 hours. 5 μL of Development Solution was added into each well and then incubated for another 1 hour at room temperature, unphosphorylated peptides were cleaved during this period. Finally, 5 μL Stop Reagent was added to quench the reaction. The plates were measured with EnVision Multilabel Reader (Perkin Elmer). The experimental data were calculated using GraphPad Prism version 4.0. Each experiment was repeated more than 3 times.

[1] = tested on: A431 cells (EGFR wild type); experiment: Inhibitory activity on cell proliferation, A431; type: cell-based; details: Homo sapiens, A-431
Experimental: (§5) Cell proliferation activity was assessed by MTS assay. Cells were exposed to processing conditions for 72 hours and the number of cells used in each experiment for each cell line was adjusted based on absorbance values (absorbance values at 490 nm, 1.3-2.2). Six concentration gradients (0.1 nM-10 μM) were set for the compounds to be tested, wherein at least 6 sets of parallel controls for each concentration were used.
(§6) H1975, A431 cells were cultured in corresponding media, and cells were passaged at least twice after resuscitation and then used for experiments. Cells at Log phase were trypsinized and resuspended in culture medium. H1975 (1000 cells per well), A431 (2000 cells per well) were seeded in 96-well plates in a volume of 100 μL; and 6 sets of parallel controls and 7 columns were set. The plate was placed in a 37° C. 5% CO2 incubator overnight. Compounds were dissolved in DMSO to a concentration of […], and then the concentration was gradually diluted to 10 μM, 1 μM, 0.1 μM, 0.01 μM, 0.001 μM, 0.0001 μM per liter, respectively. 2 μL of the compound solution was added to 998 μL of medium, and the mixture was thoroughly mixed. 100 μL of the mixture was added to a 96-well plate. […] After culturing for 68 hours, 20 μL of MTT (5 mg/mL) was added. After 4 hours, the supernatant was discarded and 150 μL of DMSO was added. After shaking for 10 minutes, the plate was read with Synergy HT (Bio TeK) (OD490). Data were calculated using GraphPad Prism version 4.0 and IC50 values were obtained using a non-linear regression model of dose response curve.

Wild type EGFR = molecular target: T2, Wild type EGFR (Homo sapiens, UniProt P00533); experiment: Kinase activity test (FRET), wild type EGFR; type: biochemical
T2 construct: purchased Invitrogen PV3872
T2 sequence (P00533 25-1210): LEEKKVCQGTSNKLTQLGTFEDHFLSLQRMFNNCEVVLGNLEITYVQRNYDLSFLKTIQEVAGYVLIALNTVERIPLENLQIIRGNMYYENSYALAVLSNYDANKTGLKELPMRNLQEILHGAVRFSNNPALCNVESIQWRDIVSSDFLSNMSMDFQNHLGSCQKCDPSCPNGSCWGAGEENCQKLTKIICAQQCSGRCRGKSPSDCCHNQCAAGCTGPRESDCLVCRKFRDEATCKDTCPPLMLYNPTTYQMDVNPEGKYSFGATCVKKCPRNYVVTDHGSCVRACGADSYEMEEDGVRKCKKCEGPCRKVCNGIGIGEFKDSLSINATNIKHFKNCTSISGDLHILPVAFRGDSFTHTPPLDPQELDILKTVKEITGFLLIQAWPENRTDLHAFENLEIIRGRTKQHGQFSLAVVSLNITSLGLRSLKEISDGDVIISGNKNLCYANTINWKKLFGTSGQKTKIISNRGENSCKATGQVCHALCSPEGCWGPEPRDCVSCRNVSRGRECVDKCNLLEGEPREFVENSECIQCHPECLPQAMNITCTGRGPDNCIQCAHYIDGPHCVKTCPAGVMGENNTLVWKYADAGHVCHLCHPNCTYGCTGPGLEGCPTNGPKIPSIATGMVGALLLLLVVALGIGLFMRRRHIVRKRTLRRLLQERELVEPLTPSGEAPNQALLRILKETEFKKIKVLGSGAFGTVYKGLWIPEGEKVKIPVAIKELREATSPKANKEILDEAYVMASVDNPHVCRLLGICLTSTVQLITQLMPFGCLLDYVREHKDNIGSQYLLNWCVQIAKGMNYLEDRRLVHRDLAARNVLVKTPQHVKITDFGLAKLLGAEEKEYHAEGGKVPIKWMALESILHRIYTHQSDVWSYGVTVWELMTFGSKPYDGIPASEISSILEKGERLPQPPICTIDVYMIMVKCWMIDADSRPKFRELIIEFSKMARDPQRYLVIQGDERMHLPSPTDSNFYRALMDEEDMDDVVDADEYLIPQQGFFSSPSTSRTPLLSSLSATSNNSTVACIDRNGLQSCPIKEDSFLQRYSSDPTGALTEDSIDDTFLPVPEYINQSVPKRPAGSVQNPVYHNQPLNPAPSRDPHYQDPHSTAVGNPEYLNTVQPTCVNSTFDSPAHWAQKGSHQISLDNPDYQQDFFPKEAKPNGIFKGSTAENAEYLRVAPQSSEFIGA
Experimental: as §1, §2, §3, §4

[2] = tested on: H1975 cells (EGFR L858R/T790M); experiment: Inhibitory activity on cell proliferation, H1975; type: cell-based; details: Homo sapiens, NCI-H1975
Experimental: as §5, §6

[3] = Determination of solubility in water (PBS 20 mM, pH 6.8); type: physicochemical; details: PBS buffer, aqueous buffer, thermodynamic from solid; pH 6.8, 20 mM PBS; read-out: Solubility (pH 6.8, g/mL)
Experimental: The suspension was filtered through a 0.22 μm PVDF filter, and then diluted to an appropriate concentration with methanol (v=50%) and PBS (v=50%), and the absorbance was measured by a UV spectrophotometer. About 3 mg of compound was accurately weighed, and methanol was added for preparing a stock solution of 1 mg/mL. The above stock solution was taken and prepared into a solution at concentrations of 0.05, 0.04, 0.03, 0.02 and 0.01 mg/mL, respectively, PBS solution (v=50%) was added and the absorbance value was measured. Concentration c (mg/mL) as horizontal ordinate vs absorbance A as longitudinal coordinate was plotted, and a line was fitted for obtaining a standard curve (correlation coefficient greater than 0.998). The solubility of a compound in water was calculated from the standard curve.

[4] = EGFR T790M/L858R, read-out: Inhibitory activity of EGFR on kinase (IC50, nM) T790M/L858R
[5] = A431, 72 hours, read-out: Inhibitory activity on proliferation of cells (IC50, μM) A431
[6] = wild type EGFR, read-out: Inhibitory activity of EGFR on kinase (IC50, nM) WT
[7] = H1975, 72 hours, read-out: Inhibitory activity on proliferation of cells (IC50, μM) H1975
[8] = Compound 53 before and after resolution, read-out: Inhibitory IC50 means (nM) ± SD value on tyrosine kinase activity EGFR/T790M/L858R
[9] = Compound 53 before and after resolution, read-out: Inhibitory IC50 means (μM) ± SD value on tumor cell growth activity A431
[10] = Compound 53 before and after resolution, read-out: Inhibitory IC50 means (nM) ± SD value on tyrosine kinase activity EGFR
[11] = Compound 53 before and after resolution, read-out: Inhibitory IC50 means (μM) ± SD value on tumor cell growth activity NCI-H1975

T1 sequence (P00533 25-1210 T790M/L858R): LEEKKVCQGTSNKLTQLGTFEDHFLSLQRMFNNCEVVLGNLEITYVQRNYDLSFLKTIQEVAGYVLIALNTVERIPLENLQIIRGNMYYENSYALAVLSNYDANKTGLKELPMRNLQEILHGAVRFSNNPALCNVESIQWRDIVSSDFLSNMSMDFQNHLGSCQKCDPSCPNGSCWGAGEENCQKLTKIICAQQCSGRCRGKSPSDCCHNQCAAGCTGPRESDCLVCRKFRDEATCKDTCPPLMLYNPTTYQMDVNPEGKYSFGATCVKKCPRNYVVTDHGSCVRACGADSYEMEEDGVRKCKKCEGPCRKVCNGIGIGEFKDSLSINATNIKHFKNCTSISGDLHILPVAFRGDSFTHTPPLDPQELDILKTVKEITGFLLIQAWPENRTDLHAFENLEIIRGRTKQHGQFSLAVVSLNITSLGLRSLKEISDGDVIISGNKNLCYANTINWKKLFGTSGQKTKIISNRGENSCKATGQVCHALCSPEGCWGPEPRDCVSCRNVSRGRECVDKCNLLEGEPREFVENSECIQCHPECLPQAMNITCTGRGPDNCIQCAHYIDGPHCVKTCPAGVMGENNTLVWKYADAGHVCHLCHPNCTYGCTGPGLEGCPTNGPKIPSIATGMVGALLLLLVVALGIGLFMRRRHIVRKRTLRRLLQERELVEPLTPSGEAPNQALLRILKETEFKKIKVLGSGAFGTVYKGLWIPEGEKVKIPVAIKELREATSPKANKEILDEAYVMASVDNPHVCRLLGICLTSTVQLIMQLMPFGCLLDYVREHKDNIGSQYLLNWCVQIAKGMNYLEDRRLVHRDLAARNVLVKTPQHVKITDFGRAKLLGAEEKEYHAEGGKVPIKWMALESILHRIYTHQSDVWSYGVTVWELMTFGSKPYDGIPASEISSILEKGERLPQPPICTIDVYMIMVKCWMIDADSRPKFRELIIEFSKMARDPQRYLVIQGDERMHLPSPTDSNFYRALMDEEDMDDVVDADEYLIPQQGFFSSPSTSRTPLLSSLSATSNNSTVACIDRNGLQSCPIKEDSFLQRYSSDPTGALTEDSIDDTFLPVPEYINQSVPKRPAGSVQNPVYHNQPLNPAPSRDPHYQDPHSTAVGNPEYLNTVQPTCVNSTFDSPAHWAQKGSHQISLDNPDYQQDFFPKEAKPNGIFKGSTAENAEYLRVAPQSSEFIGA

IC50 (EGFR-L858R/T790M; [4]) [nM] | IC50 [1, 5] [µM] | IC50 (Wild type EGFR; [6]) [nM] | IC50 [2, 7] [µM] | solubility [3] [µg/mL] | IC50 (EGFR-L858R/T790M; [8]) [nM] | IC50 [1, 9] [µM] | IC50 (Wild type EGFR; [10]) [nM] | IC50 [2, 11] [µM] | IC50 (EGFR-L858R/T790M; EGFR T790M/L858R, read-out: Inhibitory activity of EGFR on kinase (IC50) T790M/L858R) [nM] | IC50 (Wild type EGFR; wild type EGFR, read-out: Inhibitory activity of EGFR on kinase (IC50) WT) [nM] | SMILES
791 | 1.6 | 177 | 3.09 | 438 (≈ 720 µM) | – | – | – | – | – | – | Cc1cc(Nc2ncc3nc(-c4ccccc4)c(=O)n([C@H]4CCN(C(=O)/C=C/CN(C)C)C4)c3n2)ccc1N1CCN(C)CC1 [Compound 29, (S,E)-8-(1-(4-(dimethylamino)-2-butenoyl)-3-pyrrolidinyl)-2-((3-methyl-4-(4-methyl-1-piperazinyl)phenyl)amino)-6-phenyl-7(8H)-pteridinone]
– | – | – | – | < 10 | – | – | – | – | – | – | C=CC(=O)N1CCCC(n2c(=O)c(-c3ccccc3)nc3cnc(Nc4ccc(N5CCN(C)CC5)cc4OC)nc32)C1 (centres unmarked) [Compound 58, 8-(1-acryloyl-3-piperidinyl)-2-((2-methoxy-4-(4-methyl-1-piperazinyl)phenyl)amino)-6-phenyl-7(8H)pteridinone]
0.6 | 0.82 | 2.4 | 0.006 | 122 (≈ 246 µM) | – | – | – | – | – | – | C=CC(=O)Nc1cccc(-n2c(=O)cnc3cnc(Nc4ccc(N5CCN(C)CC5)c(C)c4)nc32)c1 [Compound 5]
– | – | – | – | – | 15.2 ± 2.3 | > 10 | 8 ± 0.8 | 0.062 ± 0.012 | – | – | C=CC(=O)N1CCC[C@H](Cn2c(=O)c(-c3ccccc3)nc3cnc(Nc4ccc(N5CCN(C)CC5)cc4OC)nc32)C1 [53-2 (S)]
> 10000 | > 10 | > 10000 | 8.38 | 3970 (≈ 6730 µM) | – | – | – | – | – | – | COc1cc(N2CCN(C)CC2)ccc1Nc1ncc2nc(C(C)C)c(=O)n([C@H]3CCN(C(=O)/C=C/CN(C)C)C3)c2n1 [Compound 28]
– | – | – | – | – | 295 ± 85 | 5.31 ± 1.04 | 273 ± 38 | > 10 | – | – | C=CC(=O)N1CCC[C@@H](Cn2c(=O)c(-c3ccccc3)nc3cnc(Nc4ccc(N5CCN(C)CC5)cc4OC)nc32)C1 [53-1 (R)]

Second part, the compound before the results:

SMILES | IC50 (EGFR-L858R/T790M; [4]) [nM] | IC50 [1, 5] [µM] | IC50 (Wild type EGFR; [6]) [nM] | IC50 [2, 7] [µM] | solubility [3] [µg/mL] | IC50 (EGFR-L858R/T790M; [8]) [nM] | IC50 [1, 9] [µM] | IC50 (Wild type EGFR; [10]) [nM] | IC50 [2, 11] [µM] | IC50 (EGFR-L858R/T790M; EGFR T790M/L858R, read-out: Inhibitory activity of EGFR on kinase (IC50) T790M/L858R) [nM] | IC50 (Wild type EGFR; wild type EGFR, read-out: Inhibitory activity of EGFR on kinase (IC50) WT) [nM]
C=CC(=O)Nc1cccc(-n2c(=O)cnc3cnc(Nc4ccc(CCN5CCN(C)CC5)cc4)nc32)c1 [Compound 8, N-(3-(2-((4-(2-(4-methyl-1-piperazinyl)ethyl)phenyl)amino)-7-oxo-8(7H)-pteridinyl)phenyl)acrylamide] | 2.1 | 0.97 | 5.7 | 0.09 | 280 (≈ 549 µM) | – | – | – | – | – | –
C=CC(=O)Nc1cccc(-n2c(=O)c(C3CCCCC3)nc3cnc(Nc4ccc(N5CCN(C)CC5)cc4OC)nc32)c1 [Compound 43, N-(3-(6-cyclohexyl-2-((2-methoxy-4-(4-methyl-1-piperazinyl)phenyl)amino)-7-oxo-8(7H)pteridinyl)phenyl)acrylamide] | 0.6 | 0.433 | 7.7 | 0.112 | < 10 | – | – | – | – | – | –
C=CC(=O)N1CCC[C@@H](Cn2c(=O)cnc3cnc(Nc4ccc(N5CCN(C)CC5)cc4OC)nc32)C1 [Compound 16, (R)-8-((1-acryloyl-3-piperidinyl)methyl)-2-((2-methoxy-4-(4-methyl-1-piperazinyl)phenyl)amino)-7(8H)-pteridinone] | > 10000 | > 10 | 4700 | > 10 | 956 (≈ 1840 µM) | – | – | – | – | – | –
C=CC(=O)N1CCC[C@@H](Cn2c(=O)c(C(C)C)nc3cnc(Nc4ccc(N5CCN(C)CC5)cc4OC)nc32)C1 [Compound 21, (R)-8-((1-acryloyl-3-piperidinyl)methyl)-6-isopropyl-2-((2-methoxy-4-(4-methyl-1-piperazinyl)phenyl)amino)-7(8H)-pteridinone] | 251 | > 10 | 2880 | 4.49 | 72.2 (≈ 129 µM) | – | – | – | – | – | –
C=CC(=O)Nc1cccc(-n2c(=O)c(C(C)C)nc3cnc(Nc4ccc(N5CCN(C)CC5)cc4)nc32)c1 [Compound 13, N-(3-(6-isopropyl-2-((4-(4-methyl-1-piperazinyl)phenyl)amino)-7-oxo-8(7H)-pteridinyl)phenyl)acrylamide] | 5.7 | 1.48 | 4.2 | 0.046 | 8.9 (≈ 17 µM) | – | – | – | – | – | –
C=CC(=O)N1CCC[C@H](n2c(=O)cnc3cnc(Nc4ccc(N5CCN(C)CC5)cc4OC)nc32)C1 [Compound 3] | – | 60.6 | – | 33.7 | > 11400 | – | – | – | – | > 10000 | > 10000
C=CC(=O)Nc1cccc(-n2c(=O)cnc3cnc(Nc4ccc(N5CCN(C(C)=O)CC5)cc4OC)nc32)c1 [Compound 7, N-(3-(2-((4-(4-acetyl-1-piperazinyl)-2-methoxyphenyl)amino)-7-oxo-8(7H)-pteridinyl)phenyl)acrylamide] | 9.5 | 20.5 | 45.2 | 0.197 | < 25 | – | – | – | – | – | –
C=CC(=O)Nc1cccc(-n2c(=O)c(-c3ccccc3)nc3cnc(Nc4ccc(N(C)CCN(C)C)cc4OC)nc32)c1 [Compound 20, N-(3-(2-((4-((2-(dimethylamino)ethyl)(methyl)amino)-2-methoxyphenyl)amino)-7-oxo-6-phenyl-8(7H)-pteridinyl)phenyl)acrylamide] | 1.3 | 6 | 15 | 0.04 | 7.4 (≈ 12.5 µM) | – | – | – | – | – | –
C=CC(=O)Nc1cccc(-n2c(=O)cnc3cnc(Nc4ccc(N5CCC(N(C)C)CC5)cc4OC)nc32)c1 [Compound 12] | 6.2 | 2.52 | 3.5 | 0.006 | 369 (≈ 683 µM) | – | – | – | – | – | –
C=CC(=O)Nc1cccc(-n2c(=O)cnc3cnc(Nc4ccc(N5CCN(C)CC5)cc4OCCOC)nc32)c1 [Compound 10, N-(3-(2-((2-(methoxyethoxy)-4-(4-methyl-1-piperazinyl)phenyl)amino)-7-oxo-8(7H)-pteridinyl)phenyl)acrylamide] | 191 | 7.53 | 93.7 | 2.6 | 399 (≈ 716 µM) | – | – | – | – | – | –
C=CC(=O)N1CCC(n2c(=O)cnc3cnc(Nc4ccc(N5CCN(C)CC5)cc4OC)nc32)CC1 [Compound 15, 8-(1-acryloyl-4-piperidinyl)-2-((2-methoxy-4-(4-methyl-1-piperazinyl)phenyl)amino)-7(8H)-pteridinone] | 2250 | – | 2300 | – | 514 (≈ 1020 µM) | – | – | – | – | – | –
